The Kd is the free concentration of one partner at which half of the binding sites on the other are occupied at equilibrium, for simple one-to-one binding. Lower therefore signals higher affinity. The term IC50 denotes the concentration at which inhibition is half-maximal.

Assay [1] addresses T1, E3 ubiquitin-protein ligase Mdm2 (Homo sapiens, UniProt Q00987). Kind of assay: Binding affinity to human MDM2 by temperature dependent fluorescence assay.
Assay [2] has as its target T1, E3 ubiquitin-protein ligase Mdm2. Put plainly: Binding affinity to human MDM2 assessed as inhibition of interaction with p53 by fluorescence polarization assay. On the technique in general: Polarisation of emitted light reports the rotation of a fluorescent probe.
Assay [3] in a line: Antiproliferative activity against p53 null human HCT116 cells. To be noted: HCT-116. Format: functional, cell-based.
The next assay deals with Cytochrome P450 2C9 (Homo sapiens, UniProt P11712). Put plainly: Inhibition of CYP2C9 (unknown origin). Format: ADME.
Sequence of Cytochrome P450 2C9 (P11712 whole entry): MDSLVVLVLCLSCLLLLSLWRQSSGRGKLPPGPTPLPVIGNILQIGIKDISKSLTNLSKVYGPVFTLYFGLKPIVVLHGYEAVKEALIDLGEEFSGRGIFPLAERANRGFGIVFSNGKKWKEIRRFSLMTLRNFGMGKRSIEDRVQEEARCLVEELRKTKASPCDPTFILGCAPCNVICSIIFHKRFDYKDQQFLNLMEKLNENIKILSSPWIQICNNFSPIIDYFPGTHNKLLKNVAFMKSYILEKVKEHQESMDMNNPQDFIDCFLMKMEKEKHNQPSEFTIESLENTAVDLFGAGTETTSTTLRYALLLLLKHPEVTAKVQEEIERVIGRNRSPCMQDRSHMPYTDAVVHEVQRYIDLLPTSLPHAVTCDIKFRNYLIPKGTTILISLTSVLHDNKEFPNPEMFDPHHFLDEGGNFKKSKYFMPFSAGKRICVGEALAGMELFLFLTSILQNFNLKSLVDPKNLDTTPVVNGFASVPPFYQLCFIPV
Another assay addresses Cytochrome P450 2D6 (Homo sapiens, UniProt P10635). Kind of assay: Inhibition of CYP2D6 (unknown origin). Format: ADME.
The subject of the next assay is SK-UT-1. Put plainly: Antiproliferative activity against human SK-UT-1 cells expressing mutant p53. Format: functional, cell-based.
Assay [4] can be described thus: Antiproliferative activity against human SJSA1 cells expressing wild type p53. Type of assay: functional, cell-based. The following applies: SJSA-1.
In the next assay the target is Cytochrome P450 3A4 (Homo sapiens, UniProt P08684). Kind of assay: Inhibition of CYP3A4 (unknown origin). Type of assay: ADME.
Sequence of Cytochrome P450 3A4 (P08684 whole entry): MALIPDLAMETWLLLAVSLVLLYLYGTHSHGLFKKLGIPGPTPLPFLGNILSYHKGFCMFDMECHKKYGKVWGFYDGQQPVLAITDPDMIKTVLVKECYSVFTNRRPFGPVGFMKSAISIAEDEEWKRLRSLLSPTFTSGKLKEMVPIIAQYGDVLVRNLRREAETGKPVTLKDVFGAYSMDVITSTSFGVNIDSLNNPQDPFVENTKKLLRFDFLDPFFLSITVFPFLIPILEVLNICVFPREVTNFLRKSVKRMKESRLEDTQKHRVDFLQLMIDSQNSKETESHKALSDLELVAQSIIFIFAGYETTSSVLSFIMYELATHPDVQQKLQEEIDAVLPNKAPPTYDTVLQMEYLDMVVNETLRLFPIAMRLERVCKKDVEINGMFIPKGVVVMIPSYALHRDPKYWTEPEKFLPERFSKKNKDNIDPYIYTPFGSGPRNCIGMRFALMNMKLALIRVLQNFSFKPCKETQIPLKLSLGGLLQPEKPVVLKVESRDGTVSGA
Assay [5] in a line: Antiproliferative activity against human HCT116 cells expressing wild type p53. Type of assay: functional, cell-based. To be noted: HCT-116.

T1 sequence (Q00987 whole entry): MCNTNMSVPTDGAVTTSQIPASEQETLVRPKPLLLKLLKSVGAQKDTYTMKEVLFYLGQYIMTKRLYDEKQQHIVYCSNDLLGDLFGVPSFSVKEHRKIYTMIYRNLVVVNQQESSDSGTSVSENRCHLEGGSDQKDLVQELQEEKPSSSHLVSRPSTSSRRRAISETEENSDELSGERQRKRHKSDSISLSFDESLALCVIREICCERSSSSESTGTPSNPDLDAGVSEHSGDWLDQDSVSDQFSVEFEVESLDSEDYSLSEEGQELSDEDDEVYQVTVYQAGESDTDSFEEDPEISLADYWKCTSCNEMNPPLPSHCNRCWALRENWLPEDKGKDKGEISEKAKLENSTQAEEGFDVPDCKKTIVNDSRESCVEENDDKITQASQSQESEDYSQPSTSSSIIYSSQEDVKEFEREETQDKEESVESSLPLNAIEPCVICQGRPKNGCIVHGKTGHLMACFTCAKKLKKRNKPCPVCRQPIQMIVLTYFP
Sequence of Cytochrome P450 2D6 (P10635 whole entry): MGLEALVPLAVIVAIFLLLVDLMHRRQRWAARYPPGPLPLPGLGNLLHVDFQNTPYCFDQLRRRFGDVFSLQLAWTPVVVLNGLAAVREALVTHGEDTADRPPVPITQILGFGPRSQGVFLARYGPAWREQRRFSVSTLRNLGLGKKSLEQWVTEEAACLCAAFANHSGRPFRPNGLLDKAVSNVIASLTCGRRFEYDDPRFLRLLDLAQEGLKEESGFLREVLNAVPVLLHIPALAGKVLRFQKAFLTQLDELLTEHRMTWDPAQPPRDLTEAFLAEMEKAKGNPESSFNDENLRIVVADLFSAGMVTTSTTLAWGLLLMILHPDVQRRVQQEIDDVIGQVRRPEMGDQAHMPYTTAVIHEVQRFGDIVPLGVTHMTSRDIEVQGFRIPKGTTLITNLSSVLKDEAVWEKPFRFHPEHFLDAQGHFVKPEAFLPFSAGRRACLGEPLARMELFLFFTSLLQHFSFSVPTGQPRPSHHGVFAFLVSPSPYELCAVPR

The compound `O=C(c1cnccc1C(F)(F)F)N1CCCC(Oc2ccc(C(F)(F)F)cc2)(C(=O)N2CCN(c3ccccn3)CC2)C1` (centres undefined) had a dissociation constant Kd in [1] of 0.5 µM. This counts as sub-micromolar.
On to `CCC[C@H]1N(C(=O)c2cnccc2C(F)(F)F)CCC[C@@]1(Oc1ccc(C(F)(F)F)cc1)C(=O)N1CCC(Oc2ccncn2)CC1`, for which the 50% inhibitory concentration (IC50) in assay [2] worked out at 0.376 µM.
With `CCC[C@H]1N(C(=O)c2cnccc2C(F)(F)F)CCC[C@@]1(Oc1ccc(C(F)(F)F)cc1)C(=O)N1CCC(Oc2cccc(C)c2)CC1`, the IC50 in assay [2] is 0.668 µM.
Take `CCC[C@H]1N(C(=O)c2cnccc2C(F)(F)F)CCC[C@@]1(Oc1ccc(C(F)(F)F)cc1)C(=O)N1CCC(Oc2ccccc2C#N)CC1`: in [2], the IC50 worked out at 8.71 µM.
On to `CCC[C@H]1N(C(=O)c2cnccc2C(F)(F)F)CCC[C@@]1(Oc1ccc(C(F)(F)F)cc1)C(=O)N1CCC(Oc2cnccn2)CC1`, for which, in [2], the IC50 is 1.06 µM.
The same measure, in the same setting: next, `CCC[C@H]1N(C(=O)c2cnccc2C(F)(F)F)CCC[C@@]1(Oc1ccc(C(F)(F)F)cc1)C(=O)N1CCC(Oc2cccnc2)CC1`: 0.267 µM.
With `CCC[C@H]1N(C(=O)c2cnccc2C(F)(F)F)CCC[C@@]1(Oc1ccc(C(F)(F)F)cc1)C(=O)N1CCC(Oc2ccc(C#N)cc2)CC1`, the 50% inhibitory concentration (IC50) in [2] came to 1.92 µM.
`CCC[C@H]1N(C(=O)c2cnccc2C(F)(F)F)CCC[C@@]1(Oc1ccc(C(F)(F)F)cc1)C(=O)N1CCC(Oc2ncccc2CN)CC1`: the IC50 in [2] was found to be 7.74 µM.
Same read-out and setting: next, `CCC[C@H]1N(C(=O)c2cnccc2C(F)(F)F)CCC[C@@]1(Oc1ccc(C(F)(F)F)cc1)C(=O)N1CCC(Oc2cc(C(N)=O)ccn2)CC1`: 8.72 µM; `CCC[C@H]1N(C(=O)c2cnccc2C(F)(F)F)CCC[C@@]1(Oc1ccc(C(F)(F)F)cc1)C(=O)N1CCC(Oc2cccc(C#N)n2)CC1`: 0.686 µM; `CCC[C@H]1N(C(=O)c2cnccc2C(F)(F)F)CCC[C@@]1(Oc1ccc(C(F)(F)F)cc1)C(=O)N1CCC(Oc2ccc(C)cc2)CC1`: 8.77 µM.
On to `CCC[C@H]1N(C(=O)c2cnccc2C(F)(F)F)CCC[C@@]1(Oc1ccc(C(F)(F)F)cc1)C(=O)N1CCC(Oc2cccc(C(=O)NC)n2)CC1`, for which, in assay [2], the IC50 stood at 0.114 µM.
For the compound `CCC[C@H]1N(C(=O)c2cnccc2C(F)(F)F)CCC[C@@]1(Oc1ccc(C(F)(F)F)cc1)C(=O)N1CCC(Oc2ccc(C(N)=O)cn2)CC1`, the half-maximal inhibitory concentration (IC50) in assay [2] was 0.144 µM.
The same measure, in the same setting: under `CCC[C@H]1N(C(=O)c2cnccc2C(F)(F)F)CCC[C@@]1(Oc1ccc(C(F)(F)F)cc1)C(=O)N1CCC(Oc2cccc(Cl)c2)CC1` stands 2.1 µM; under `CCC[C@H]1N(C(=O)c2cnccc2C(F)(F)F)CCC[C@@]1(Oc1ccc(C(F)(F)F)cc1)C(=O)N1CCC(Oc2ccccn2)CC1`, 0.15 µM; under `CCC[C@H]1N(C(=O)c2cnccc2C(F)(F)F)CCC[C@@]1(Oc1ccc(C(F)(F)F)cc1)C(=O)N1CCC(Oc2cc(CN)ccn2)CC1`, 4.03 µM.
As for `CCC[C@H]1N(C(=O)c2cnccc2C(F)(F)F)CCC[C@@]1(Oc1ccc(C(F)(F)F)cc1)C(=O)N1CCC(Oc2ncccc2C(N)=O)CC1`, the 50% inhibitory concentration (IC50) in assay [2] amounted to 4.28 µM.
Turning to `CCC[C@H]1N(C(=O)c2cnccc2C(F)(F)F)CCC[C@@]1(Oc1ccc(C(F)(F)F)cc1)C(=O)N1CCC(Oc2ccc(C#N)cn2)CC1`, the IC50 in assay [2] was 0.492 µM.
In the case of `CCC[C@H]1N(C(=O)c2cnccc2C(F)(F)F)CCC[C@@]1(Oc1ccc(C(F)(F)F)cc1)C(=O)N1CCC(Oc2cccc(C(=O)OC)n2)CC1`, in [2], the half-maximal inhibitory concentration (IC50) was 0.392 µM.
Same read-out and setting: next, `CCC[C@H]1N(C(=O)c2cnccc2C(F)(F)F)CCC[C@@]1(Oc1ccc(C(F)(F)F)cc1)C(=O)N1CCC(Sc2ccc(C)cc2)CC1`: 9.36 µM; `CCC[C@H]1N(C(=O)c2cnccc2C(F)(F)F)CCC[C@@]1(Oc1ccc(C(F)(F)F)cc1)C(=O)N1CCC(Oc2ccncc2)CC1`: 0.224 µM.
Still for that read-out and setting: under `CCC[C@H]1N(C(=O)c2cnccc2C(F)(F)F)CCC[C@@]1(Oc1ccc(C(F)(F)F)cc1)C(=O)N1CCC(Oc2cccc(C#N)c2)CC1` stands 0.399 µM; under `CCC[C@H]1N(C(=O)c2cnccc2C(F)(F)F)CCC[C@@]1(Oc1ccc(C(F)(F)F)cc1)C(=O)N1CCC(Oc2cccc(C(N)=O)n2)CC1`, 0.111 µM.
The same measure, in the same setting: next, `CCC[C@H]1N(C(=O)c2cnccc2C(F)(F)F)CCC[C@@]1(Oc1ccc(C(F)(F)F)cc1)C(=O)N1CCC(Oc2ccccc2C)CC1`: 6.6 µM.
As for `CCC[C@H]1N(C(=O)c2cnccc2C(F)(F)F)CCC[C@@]1(Oc1ccc(C(F)(F)F)cc1)C(=O)N1CCC(Oc2cccc(Cl)n2)CC1`, the IC50 in assay [2] amounted to 2.36 µM.
The same measure, in the same setting: under `CCC[C@H]1N(C(=O)c2cnccc2C(F)(F)F)CCC[C@@]1(Oc1ccc(C(F)(F)F)cc1)C(=O)N1CCC(Oc2ccc(CN)cn2)CC1` stands 0.801 µM.
On the same count and under the same terms, under `CCC[C@H]1N(C(=O)c2cnccc2C(F)(F)F)CCC[C@@]1(Oc1ccc(C(F)(F)F)cc1)C(=O)N1CCC(Oc2ncccc2C#N)CC1` stands 2.4 µM.
Consider `CCC[C@H]1N(C(=O)c2cnccc2C(F)(F)F)CCC[C@@]1(Oc1ccc(C(F)(F)F)cc1)C(=O)N1CCC(Oc2ccccc2)CC1`, for which the 50% inhibitory concentration (IC50) in [2] stood at 2.4 µM.
In the case of `CCC[C@H]1N(C(=O)c2cnccc2C(F)(F)F)CCC[C@@]1(Oc1ccc(C(F)(F)F)cc1)C(=O)N1CCC(Oc2ncccn2)CC1`, the IC50 in [2] worked out at 0.334 µM.
On the same count and under the same terms, under `CCC[C@H]1N(C(=O)c2cnccc2C(F)(F)F)CCC[C@@]1(Oc1ccc(C(F)(F)F)cc1)C(=O)N1CCC(Sc2ccccc2)CC1` stands 1.98 µM; under `CCC[C@H]1N(C(=O)c2cnccc2C(F)(F)F)CCC[C@@]1(Oc1ccc(C(F)(F)F)cc1)C(=O)N1CCC(Oc2ccc(Cl)cc2)CC1`, 4.11 µM.
In the case of `CCC[C@H]1N(C(=O)c2cnccc2C(F)(F)F)CCC[C@@]1(Oc1ccc(C(F)(F)F)cc1)C(=O)N1CCC(Oc2cccc(OC)n2)CC1`, the IC50 in assay [2] turned out to be 1.15 µM.
Same read-out and setting: under `CCC[C@H]1N(C(=O)c2cnccc2C(F)(F)F)CCC[C@@]1(Oc1ccc(C(F)(F)F)cc1)C(=O)N1CCC(Oc2cncnc2)CC1` stands 0.525 µM; under `CCC[C@H]1N(C(=O)c2cnccc2C(F)(F)F)CCC[C@@]1(Oc1ccc(C(F)(F)F)cc1)C(=O)N1CCC(Oc2cccc(C)n2)CC1`, 5.03 µM; under `CCC[C@H]1N(C(=O)c2cnccc2C(F)(F)F)CCC[C@@]1(Oc1ccc(C(F)(F)F)cc1)C(=O)N1CCC(Cc2ccc(C)cc2)CC1`, 25.8 µM.
The same measure, in the same setting: next, `CCC[C@H]1N(C(=O)c2cnccc2C(F)(F)F)CCC[C@@]1(Oc1ccc(C(F)(F)F)cc1)C(=O)N1CCC(Oc2cccc(CN)n2)CC1`: 0.173 µM; `CCC[C@H]1N(C(=O)c2cnccc2C(F)(F)F)CCC[C@@]1(Oc1ccc(C(F)(F)F)cc1)C(=O)N1CCC(Oc2cc(C#N)ccn2)CC1`: 0.293 µM.
Turning to `CCC[C@H]1N(C(=O)c2cnccc2C(F)(F)F)CCC[C@@]1(Oc1ccc(C(F)(F)F)cc1)C(=O)N1CCC(Oc2cccc(C(F)(F)F)n2)CC1`, in assay [2], the IC50 stood at 2.04 µM.
Consider `CCC[C@H]1N(C(=O)c2cnccc2C(F)(F)F)CCC[C@@]1(Oc1ccc(C(F)(F)F)cc1)C(=O)N1CCC(Oc2cccc(Br)n2)CC1`, for which the IC50 in assay [2] was determined as 1.86 µM.
On the same count and under the same terms, under `CCC[C@H]1N(C(=O)c2cnccc2C(F)(F)F)CCC[C@@]1(Oc1ccc(C(F)(F)F)cc1)C(=O)N1CCC(Oc2ccccc2Cl)CC1` stands 2.76 µM.
Take `CCC[C@H]1N(C(=O)c2cnccc2C(F)(F)F)CCC[C@@]1(Oc1ccc(C(F)(F)F)cc1)C(=O)N1CCC(Cc2ccccc2)CC1`: the IC50 in [2] is 5.83 µM.
Consider `CCC[C@H]1N(C(=O)c2cnccc2C(F)(F)F)CCC[C@@]1(Oc1ccc(C(F)(F)F)cc1)C(=O)N1CCC(Oc2cccc(C(=O)O)n2)CC1`, for which the 50% inhibitory concentration (IC50) is greater than 100 µM in assay [3]; greater than 50 µM against Cytochrome P450 2C9; greater than 50 µM against Cytochrome P450 2D6; greater than 100 µM in the assay on SK-UT-1; 4.65 µM in assay [4]; greater than 50 µM at Cytochrome P450 3A4. In addition, the values for the IC50 in assay [2] and in [5] were 0.042 µM and 8.65 µM, respectively.

The values are drawn from ChEMBL document CHEMBL3797031, “Structure-activity relationship study of 4-substituted piperidines at Leu26 moiety of novel p53-hDM2 inhibitors” (Bioorg Med Chem Lett, 2016).
